Tests used:
[1] = tested on: MAP kinase; assay: MAP kinase activation in Rat1 cells compared to EGF and TPA (Example 3, western blot, densitometry); type: cell-based, rat; settings: 15 minutes; for Activity (% of EGF-activation), Conc. 1 / Activity (% of TPA-activation), Conc. 1: compound 1 × 10^-4 M; for Activity (% of EGF-activation), Conc. 1 / Activity (% of EGF-activation), Conc. 2: relative to EGF 50 ng/ml; for Activity (% of TPA-activation), Conc. 1 / Activity (% of TPA-activation), Conc. 2: relative to TPA 100 nM; for Activity (% of EGF-activation), Conc. 2 / Activity (% of TPA-activation), Conc. 2: compound 1 × 10^-5 M
Procedure: Rat1 cells were grown in 6 cm cell culture dishes in a tissue culture incubator at 37° C. in an atmosphere containing 5% carbon dioxide. The Rat1 cells were serum-starved for 16 hours. Three groups of the Rat1 cells were then treated for 15 minutes with either epidermal growth factor (EGF) (50 ng/ml), 12-O-tetradecanoylphorbol-13-acetate (TPA) (100nM), or with one of the pheromone compounds at one of two concentrations identified in Table 2 below. EGF and TPA are compounds which are known to activate MAP kinase and therefore serve as a basis of comparing the relative activity of the pheromone compounds. The cells were then washed with phosphate buffered saline (PBS) and lysed with radioimmunoprotein assay (RIPA) buffer. The proteins were then separated by sodium dodecyl sulfate-polyacrylamide gel electrophoresis (SDS-PAGE), transferred onto a nitrocellulose membrane and probed with anti-MAPK antibodies to produce a blot. The MAP kinase activity for the EGF-treated cells, the TPA-treated cells and the pheromone compound-treated cells, was analyzed and calculated using densitometric analysis. The results shown in Table 2 are presented as percent of EGF-stimulated active MAP kinase levels or TPA-stimulated active MAP kinase levels, respectively.

[2] = tested on: MAP kinase; assay: Screening method for pheromone compounds having MAP kinase modulating activity in Rat1 cells (Example 1); type: cell-based, rat; settings: observed on screening in accordance with the described methods
Procedure: In a preferred screening method, as set forth in Example 1 herein, pheromone compounds with MAP kinase modulating activity are identified using Rat1 cells grown in cell culture dishes. Samples of the pheromone compound are added to respective cell culture dishes containing the Rat1 cells and incubated. A control group is established by treating a separate group of cell culture dishes containing Rat1 cells with the same solutions absent the pheromone compound. After incubation, the Rat1 cells are stimulated with epidermal growth factor to stimulate MAP kinase activation in the Rat1 cells. Upon completion of the incubation period, the Rat1 cells in each of the culture dishes are separately processed to obtain the corresponding cell extract containing proteins indicative of active kinase. The proteins are then separated using known electrophoresis techniques and prepared as a blot for the detection and measurement of active MAP kinase. The resulting blot is analyzed using densitometric techniques to measure the corresponding activity of the tested pheromone compound.
Rat1 cells were grown in 6 cm cell culture dishes in a tissue culture incubator at 37° C. in an atmosphere containing 5% carbon dioxide. The cells were serum-starved for 16 hours. […] A control group was established by adding to the remaining cell culture dishes the same solution absent the pheromone compound. After the 15 minute period, the Rat1 cells were stimulated with epidermal growth factor (EGF) (50 ng/ml) for about 15 minutes for one group and 30 minutes for a second group.
The Rat1 cells were then treated to remove the corresponding incubation medium and then the cells were rinsed twice each with 5 ml of cold phosphate buffered saline (PBS) and once with 5 ml of cold homogenizing buffer (Buffer H) containing 50 mM of β-glycerophosphate, (pH 7.3), 1.5 mM of ethylenebis(oxyethylenenitrilo)tetraacetic acid (EGTA), 1 mM of ethylenediaminetetraacetic acid (EDTA), 1 mM of dithiothreitol (DTT), 0.1 mM sodium orthovanadate, 1 mM benzamidine, 10 μg/ml of aprotinin, 10 μg/ml of leupeptin, and 2 μg/ml of pepstatin (2 μg/ml)+1% Triton-X-100.
The cells were harvested and lysed with 350 μl of cold Buffer H. Alternatively, the cells may be harvested and lysed with radioimmunoprotein assay buffer (RIPA buffer). Each extract was then centrifuged at 15,000×g for 15 minutes at 4° C. The resulting supernatants contained the protein extracts to be examined and were transferred to fresh, pre-cooled test tubes and kept on ice.
The proteins were then separated by sodium dodecyl sulfate-polyacrylamide gel electrophoresis (SDS-PAGE) and transferred, by western blotting, onto a nitrocellulose membrane.
The blot produced above was blocked with 2% bovine serum albumin (BSA) in Tris-buffered saline/Tween-20 (TBST) for 1 hour. The blot was then incubated with a monoclonal anti-active MAP kinase antibody obtained from Sigma, and diluted according to the manufacturer recommendations. The blot was incubated overnight at 4° C. Alternatively, the blot may also be incubated for about 30 minutes at 37° C., or from one to two hours at room temperature.
The treated blot was placed in a flat container and washed at least 3 times for 15 minutes each with TBST buffer at room temperature. The blot was then incubated with alkaline phosphatase-conjugated goat anti-mouse IgG obtained from Jackson Laboratories, diluted according to the manufacturer recommendations in TBST buffer for 45 minutes at room temperature. The blot was then subjected to a second washing, repeated 3 times, for 10 minutes each with TBST. An alkaline phosphatase (AP) detection technique was utilized to detect and measure the presence of active MAP kinase. Enhanced MAP kinase activity as compared to control is evidence that the compound is a MAP kinase activator. Lowered MAP kinase activity as compared to control is evidence that the compound is a MAP kinase inhibitor. […]

Compound | Activity (% of EGF-activation), Conc. 1 [1] [%] | Activity (% of TPA-activation), Conc. 1 [1] [%] | Activity (% of EGF-activation), Conc. 2 [1] [%] | Activity (% of TPA-activation), Conc. 2 [1] [%] | mitogen-activating protein kinase modulation activity (activator or inhibitor) [2]
Heneicosene-11-one | 12 | 42 | 12 | 22 | activators
CCCCC/C=C\CCCC(=O)CCCCCCCCCC [cis-6-heneicosene-11-one] |  |  |  |  | activators
Cis-9-Undecenyl-acetate | 18 | 115 | 3 | 10 | activators
CCCC/C=C/CCCCOC(C)=O [Trans-5-decenyl-acetate] | 1 |  | 4 | 18 | activators
CCCCC/C=C\CCCCCCCCO [Cis-9-Pentadecenol] | 14 | 95 | 6 | 30 | activators
CCCCCCCC/C=C\CCCCCCCCCCC [Cis-9-Heneicosene] |  |  | 3 | 22 | activators
C/C=C/CCCCCCCCCO [Trans-10-Dodecenol] | 2 | 10 | 10 | 60 | activators
CCCC/C=C\CCCCCCCCO [Cis-9-Tetradecenol] | 15 | 105 | 8 | 35 | activators
CCCCCC/C=C\CCCCCCOC(C)=O [Cis-7-Tetradecenyl-acetate] | 8 | 21 | 10 | 80 | activators
CCCCCCCC/C=C\CCCOC(C)=O [Cis-4-Tridecen-1-yl-acetate] | 3 | 7 | 5 | 30 | activators
C=CC(C)(C)O [2-methyl-3-butene-2-ol] | 5 | 35 |  |  | activators
CCCC/C=C\CCCCCCCCC/C=C/C=O [Trans-2,Cis-13-Octadecadienal] | 4 | 30 | 8 | 40 | activators
CCCC/C=C\CCCCCCOC(C)=O [Cis-7-Dodecenyl-acetate] | 7 | 20 | 8 | 17 | activators
CCCCCC/C=C\CCCCCCO [Cis-7-Tetradecenol] | 9 | 30 | 9 | 25 | activators
CCCCCC/C=C\CCCCCC=O [Cis-7-Tetradecenal] | 7 | 20 | 5 | 10 | activators
CCCCC/C=C\CCCCCCO [Cis-7-Tridecenol] | 12 | 80 | 9 | 60 | activators
CCC(C)CCCC/C=C\CCCCCCC=O (stereo not drawn) [14-methyl-Cis-8-Hexadecenal] | 10 | 75 | 3 | 15 | activators
CCCC/C=C\CCCCCCCCOC=O [Cis-9-Tetradecenyl-formate] | 12 | 90 | 12 | 55 | activators
CCCCCCCCCC/C=C\CCCCC(C)C [Cis-2-methyl-7-Octadecene] | 8 | 60 | 8 | 45 | activators
CC/C=C\C/C=C\CCC/C=C/CCO [Trans-3,Cis-8,Cis-11-Tetradecatrienol] | 6 | 10 | 5 | 50 | activators
CCCCCC(C)=O [2-Heptanone] | 5 | 14 | 7 | 50 | activators

From US6806293B1, “Use of pheromone compounds having MAP kinase modulating activity” (Darley Pharmaceuticals LTD, priority 2001, dated 2004)
